Test results taken from patent US7494754B2, “Electrophotographic photoreceptor containing asymmetric naphthalenetetracarboxylic acid diimide derivatives and electrophotographic imaging apparatus employing the same” (Samsung Electronics Co., Ltd., priority 2005, dated 2009).

Assay: Solubility test in organic solvents
Format: physicochemical
Details: for Methylene chloride (g): amount of solvent required to completely dissolve 1 g of the tested compound / Tetrahydrofuran (g): amount of solvent required to completely dissolve 1 g of the tested compound: room temperature, 1 g compound
Procedure: 1 g of a compound to be tested was poured into a test tube with stirring at room temperature and solvents listed in Table 1 were slowly added drop by drop. The amounts of the solvents required to completely dissolve 1 g of the tested compound were measured.

Row | Methylene chloride (g): amount of solvent required to completely dissolve 1 g of the tested compound [g] | Tetrahydrofuran (g): amount of solvent required to completely dissolve 1 g of the tested compound [g] | solubility in organic solvents (in words) | Compound
1 | 1.5 | 12 | – | CCCCN1C(=O)c2ccc3c4c(ccc(c24)C1=O)C(=O)N(C(C)c1ccccc1)C3=O (stereo not shown) [Compound (4)]
2 | 1.3 | 7 | – | CCCCN1C(=O)c2ccc3c4c(ccc(c24)C1=O)C(=O)N(C(CC)c1ccccc1)C3=O (stereo not shown) [Compound (12)]
3 | 3.5 | 50 | poor solubility | CC(c1ccccc1)N1C(=O)c2ccc3c4c(ccc(c24)C1=O)C(=O)N(C(C)c1ccccc1)C3=O (stereo not shown) [Compound (30)]
4 | 17 | 74 | very poor solubility | CCCCN1C(=O)c2ccc3c4c(ccc(c24)C1=O)C(=O)N(CCCC)C3=O [Compound (40)]
